According to PubChem BioAssay AID256 (DTP/NCI, 2004):
Inconclusive results and toxic doses are left out. Rule for the calls: active = survival T/C of 150% or more; inactive = T/C below 125% in these data.

System: CD2F1 mice, L1210 leukemia ip, survival T/C
Assay: NCI In Vivo Anticancer Drug Screen. Data for tumor model L1210 Leukemia (intraperitoneal) in CD2F1 (CDF1) mice
Details: higher = longer survival
Method in brief: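 Vehicle-treated tumor-bearing mice served as controls (C) for compound-treated mice (T). Reported figure is T divided by C.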

[1] = endpoint: mean survival time, dose: 12.5 mg/kg/injection, schedule: Q01DX009 (ip), vehicle: saline with Tween-80
[2] = endpoint: mean survival time, dose: 25.0 mg/kg/injection, schedule: Q01DX009 (ip), vehicle: saline with Tween-80
[3] = endpoint: mean survival time, dose: 50.0 mg/kg/injection, schedule: Q01DX009 (ip), vehicle: saline with Tween-80
[4] = endpoint: mean survival time, dose: 100.0 mg/kg/injection, schedule: Q04DX003 (ip), vehicle: saline with Tween-80
[5] = endpoint: mean survival time, dose: 200.0 mg/kg/injection, schedule: Q04DX003 (ip), vehicle: saline with Tween-80
[6] = endpoint: mean survival time, dose: 400.0 mg/kg/injection, schedule: Q04DX003 (ip), vehicle: saline with Tween-80
[7] = endpoint: mean survival time, dose: 12.5 mg/kg/injection, schedule: Q01DX005 (ip), vehicle: distilled water + Tween-80
[8] = endpoint: mean survival time, dose: 25.0 mg/kg/injection, schedule: Q01DX005 (ip), vehicle: distilled water + Tween-80
[9] = endpoint: mean survival time, dose: 50.0 mg/kg/injection, schedule: Q01DX005 (ip), vehicle: distilled water + Tween-80
[10] = endpoint: mean survival time, dose: 100.0 mg/kg/injection, schedule: Q01DX005 (ip), vehicle: distilled water + Tween-80
[11] = endpoint: mean survival time, dose: 200.0 mg/kg/injection, schedule: Q01DX005 (ip), vehicle: distilled water + Tween-80
[12] = endpoint: mean survival time, dose: 37.5 mg/kg/injection, schedule: Q01DX009 (ip), vehicle: saline
[13] = endpoint: mean survival time, dose: 75.0 mg/kg/injection, schedule: Q01DX001 (ip), vehicle: saline
[14] = endpoint: mean survival time, dose: 150.0 mg/kg/injection, schedule: Q01DX001 (ip), vehicle: saline
[15] = endpoint: mean survival time, dose: 100.0 mg/kg/injection, schedule: Q01DX009 (ip), vehicle: saline with Tween-80
[16] = endpoint: mean survival time, dose: 200.0 mg/kg/injection, schedule: Q01DX009 (ip), vehicle: saline with Tween-80
[17] = endpoint: mean survival time, dose: 12.5 mg/kg/injection, schedule: Q04DX003 (ip), vehicle: saline

Measured: T/C

CCOC(=O)c1c2c3c(c(Br)ccc3n(C)c1=O)C(=O)c1ccccc1-2
inactive: [1] 98 % of control | [2] 96 % of control | [3] 98 % of control

Nc1ccc(N=Nc2ccc(S(=O)(=O)O)cc2)cc1
inactive: [4] 97 % of control | [5] 93 % of control | [6] 97 % of control

Cn1c(=O)c2c(ncn2CCNCC(O)c2cc(C(C)(C)C)c(O)c(C(C)(C)C)c2)n(C)c1=O (centres undefined)
inactive: [7] 100 % of control | [8] 100 % of control | [9] 106 % of control | [10] 109 % of control | [11] 101 % of control

CC(=O)N(Cc1ccncc1)N=O
inactive: endpoint: mean survival time, dose: 75.0 mg/kg/injection, schedule: Q01DX001 (ip), vehicle: water 110 % of control | endpoint: mean survival time, dose: 150.0 mg/kg/injection, schedule: Q01DX001 (ip), vehicle: water 114 % of control | endpoint: mean survival time, dose: 300.0 mg/kg/injection, schedule: Q01DX001 (ip), vehicle: water 116 % of control

CCCC/C=C/C(O)CC (centres undefined)
inactive: [4] 98 % of control | [5] 102 % of control | [6] 96 % of control

Cn1c(=O)c2c(nc(Br)n2CC(O)CF)n(C)c1=O (centres undefined)
inactive: [7] 101 % of control | [8] 98 % of control | [9] 98 % of control | [10] 101 % of control | [11] 96 % of control

O=C(/C=C/c1ccc(Cl)cc1)/C=C/c1ccc(Cl)cc1
inactive: endpoint: mean survival time, dose: 50.0 mg/kg/injection, schedule: Q01DX009 (ip), vehicle: Klucel (hydroxypropylcellulose) (HPC) 94 % of control | endpoint: mean survival time, dose: 100.0 mg/kg/injection, schedule: Q01DX009 (ip), vehicle: Klucel (hydroxypropylcellulose) (HPC) 98 % of control | endpoint: mean survival time, dose: 200.0 mg/kg/injection, schedule: Q01DX009 (ip), vehicle: Klucel (hydroxypropylcellulose) (HPC) 94 % of control

CC1(C)N=C(N)N=C(N)N1c1cccc(C#N)c1
inactive: endpoint: mean survival time, dose: 17.0 mg/kg/injection, schedule: Q01DX009 (ip), vehicle: saline 112 % of control | endpoint: mean survival time, dose: 25.0 mg/kg/injection, schedule: Q01DX009 (ip), vehicle: saline 117 % of control | [12] 120 % of control | [13] 104 % of control | [14] 113 % of control

O=c1cc[nH]c2c(-c3ccccc3)cccc12
inactive: [12] 108 % of control | endpoint: mean survival time, dose: 75.0 mg/kg/injection, schedule: Q01DX009 (ip), vehicle: saline 105 % of control | endpoint: mean survival time, dose: 75.0 mg/kg/injection, schedule: Q04DX003 (ip), vehicle: saline 95 % of control | endpoint: mean survival time, dose: 150.0 mg/kg/injection, schedule: Q01DX009 (ip), vehicle: saline 97 % of control | endpoint: mean survival time, dose: 150.0 mg/kg/injection, schedule: Q04DX003 (ip), vehicle: saline 98 % of control | endpoint: mean survival time, dose: 300.0 mg/kg/injection, schedule: Q04DX003 (ip), vehicle: saline 97 % of control

O=C(CNC(=O)Nc1ccc(F)cc1)N/N=C/c1ccc(Cl)c(Cl)c1
inactive: [3] 96 % of control | [15] 96 % of control | [16] 100 % of control

BrC1CCC([Si](c2ccccc2)(c2ccccc2)c2ccccc2)CC1 (centres undefined)
inactive: [4] 87 % of control | [5] 93 % of control | [6] 93 % of control

Cc1ccc(-c2nc(-c3ccccc3)[nH]c(=O)c2CCO)cc1
inactive: [4] 94 % of control | [5] 92 % of control | [6] 88 % of control

Cc1noc(/N=C/c2cccc(Cl)c2)c1C
inactive: endpoint: mean survival time, dose: 100.0 mg/kg/injection, schedule: Q04DX003 (ip), vehicle: saline 96 % of control | endpoint: mean survival time, dose: 200.0 mg/kg/injection, schedule: Q04DX003 (ip), vehicle: saline 101 % of control | endpoint: mean survival time, dose: 400.0 mg/kg/injection, schedule: Q04DX003 (ip), vehicle: saline 101 % of control

Cc1ccc(C)c(NC(=O)NCc2ccccc2)c1
inactive: [15] 97 % of control | [16] 106 % of control

CC(C)C[P+](c1ccccc1)(c1ccccc1)c1ccccc1
inactive: endpoint: mean survival time, dose: 75.0 mg/kg/injection, schedule: Q01DX001 (ip), vehicle: other 96 % of control

CC(C)CC(Br)C(=O)NCC(=O)O (centres undefined)
inactive: [4] 95 % of control | [5] 113 % of control | [6] 105 % of control

O=C1C=C(CCc2ccccc2)CCC1
inactive: [15] 107 % of control | [16] 107 % of control | endpoint: mean survival time, dose: 400.0 mg/kg/injection, schedule: Q01DX009 (ip), vehicle: saline with Tween-80 108 % of control

N=C(N)[Se]
inactive: [4] 95 % of control | [5] 101 % of control | [6] 95 % of control

CC(SC(=N)N)C(=N)N (centres undefined)
inactive: endpoint: mean survival time, dose: 25.0 mg/kg/injection, schedule: Q04DX002 (ip), vehicle: saline 97 % of control | endpoint: mean survival time, dose: 50.0 mg/kg/injection, schedule: Q04DX002 (ip), vehicle: saline 90 % of control | endpoint: mean survival time, dose: 100.0 mg/kg/injection, schedule: Q04DX002 (ip), vehicle: saline 105 % of control

COC(=O)CCC(NC(=O)c1cccc(N(C)C=O)c1)C(=O)OC (centres undefined)
inactive: endpoint: mean survival time, dose: 100.0 mg/kg/injection, schedule: Q01DX001 (ip), vehicle: saline with Tween-80 104 % of control | [4] 100 % of control | endpoint: mean survival time, dose: 200.0 mg/kg/injection, schedule: Q01DX001 (ip), vehicle: saline with Tween-80 115 % of control | [5] 100 % of control | endpoint: mean survival time, dose: 400.0 mg/kg/injection, schedule: Q01DX001 (ip), vehicle: saline with Tween-80 104 % of control | [6] 96 % of control

Nc1cc(=O)[nH]c(=S)[nH]1
inactive: endpoint: mean survival time, dose: 100.0 mg/kg/injection, schedule: Q04DX002 (ip), vehicle: saline with Tween-80 97 % of control | endpoint: mean survival time, dose: 200.0 mg/kg/injection, schedule: Q04DX002 (ip), vehicle: saline with Tween-80 105 % of control

CC(C)C12CCC(=O)C=C1CCCC2O (centres undefined)
inactive: endpoint: mean survival time, dose: 100.0 mg/kg/injection, schedule: Q04DX003 (ip), vehicle: saline sonified 100 % of control | endpoint: mean survival time, dose: 200.0 mg/kg/injection, schedule: Q04DX003 (ip), vehicle: saline sonified 100 % of control | endpoint: mean survival time, dose: 400.0 mg/kg/injection, schedule: Q04DX003 (ip), vehicle: saline sonified 97 % of control

COc1cc(C2c3cc4c(cc3[C@@H](OC)[C@H]3COC(=O)C23)OCO4)cc(OC)c1O (some centres undefined)
inactive: endpoint: median survival time, dose: 1.25 mg/kg/injection, schedule: Q01DX009 (ip), vehicle: saline with Tween-80 108 % of control | endpoint: median survival time, dose: 2.5 mg/kg/injection, schedule: Q01DX009 (ip), vehicle: saline with Tween-80 104 % of control | endpoint: median survival time, dose: 5.0 mg/kg/injection, schedule: Q01DX009 (ip), vehicle: saline with Tween-80 105 % of control | endpoint: median survival time, dose: 10.0 mg/kg/injection, schedule: Q01DX009 (ip), vehicle: saline with Tween-80 103 % of control

COC(=O)CSc1n[nH]c(=O)[nH]c1=O
inactive: [7] 97 % of control | [8] 100 % of control | [9] 103 % of control | [10] 94 % of control | [11] 92 % of control

CCOC(C(=O)OC1CCN(C)CC1)(c1ccccc1)c1ccccc1
inactive: [2] 98 % of control | [3] 98 % of control | [15] 93 % of control

CC(=O)Oc1ccccc1C(CC(C)C)OC(C)=O (centres undefined)
inactive: endpoint: mean survival time, dose: 100.0 mg/kg/injection, schedule: Q01DX001 (ip), vehicle: saline 96 % of control | endpoint: mean survival time, dose: 200.0 mg/kg/injection, schedule: Q01DX001 (ip), vehicle: saline 96 % of control

CCOC(=O)NC(=S)n1ncnc1N
inactive: [17] 97 % of control | endpoint: mean survival time, dose: 25.0 mg/kg/injection, schedule: Q04DX003 (ip), vehicle: saline 102 % of control

O=CN(O)CC(=O)O.[Cu]
inactive: endpoint: mean survival time, dose: 3.12 mg/kg/injection, schedule: Q01DX009 (ip), vehicle: acetone 95 % of control | endpoint: mean survival time, dose: 6.25 mg/kg/injection, schedule: Q01DX009 (ip), vehicle: acetone 101 % of control | [17] 100 % of control

N#CCCCCCCN=[N+]=[N-]
inactive: [13] 98 % of control | [14] 98 % of control

C=C(C)C1CCC2(C(=O)O)CCC3(C)C(CCC4C5(C)CCC(OC(C)=O)C(C)(C)C5CCC43C)C12 (centres undefined)
inactive: endpoint: mean survival time, dose: 100.0 mg/kg/injection, schedule: Q01DX001 (ip), vehicle: Klucel (hydroxypropylcellulose) (HPC) 93 % of control | endpoint: mean survival time, dose: 200.0 mg/kg/injection, schedule: Q01DX001 (ip), vehicle: Klucel (hydroxypropylcellulose) (HPC) 93 % of control | endpoint: mean survival time, dose: 400.0 mg/kg/injection, schedule: Q01DX001 (ip), vehicle: Klucel (hydroxypropylcellulose) (HPC) 91 % of control

O=[N+]([O-])c1ccc2ccccc2c1-c1c([N+](=O)[O-])ccc2ccccc12
inactive: [3] 92 % of control | [15] 90 % of control | [4] 93 % of control | [16] 90 % of control | [5] 87 % of control

Nc1cc(C(F)(F)F)ccc1[N+](=O)[O-]
inactive: [4] 100 % of control | [5] 100 % of control | [6] 104 % of control

CCOC(=O)N/N=C/C(Br)=C\c1ccccc1
inactive: [1] 97 % of control | [2] 92 % of control | [3] 92 % of control
